Source: ChEMBL document CHEMBL4004838, “Design and synthesis of novel phenyl -1, 4-beta-carboline-hybrid molecules as potential anticancer agents” (Eur J Med Chem, 2017)

Key:
Format in all cases: functional
NCI-H23 = experiment: Growth inhibition of human NCI-H23 cells assessed as cell growth at 10^-5 M incubated for 48 hrs by sulforhodamine B assay relative to control; details: NCI-H23, 48 h, read-out: Activity
KM12 = experiment: Growth inhibition of human KM12 cells assessed as cell growth at 10^-5 M incubated for 48 hrs by sulforhodamine B assay relative to control; details: KM12, 48 h, read-out: Activity
RXF 393 = experiment: Growth inhibition of human RXF393 cells assessed as cell growth at 10^-5 M incubated for 48 hrs by sulforhodamine B assay relative to control; details: RXF 393, 48 h, read-out: Activity
Hs-578T = experiment: Growth inhibition of human Hs 578T cells assessed as cell growth at 10^-5 M incubated for 48 hrs by sulforhodamine B assay relative to control; details: read-out: Activity
M14 = experiment: Growth inhibition of human M14 cells assessed as cell growth at 10^-5 M incubated for 48 hrs by sulforhodamine B assay relative to control; details: M14, 48 h, read-out: Activity
MDA-MB-468 = experiment: Growth inhibition of human MDA-MB-468 cells assessed as cell growth at 10^-5 M incubated for 48 hrs by sulforhodamine B assay relative to control; details: MDA-MB-468, 48 h, read-out: Activity
Malme-3M = experiment: Growth inhibition of human MALME-3M cells assessed as cell growth at 10^-5 M incubated for 48 hrs by sulforhodamine B assay relative to control; details: read-out: Activity
OVCAR-5 = experiment: Growth inhibition of human OVCAR5 cells assessed as cell growth at 10^-5 M incubated for 48 hrs by sulforhodamine B assay relative to control; details: OVCAR-5, 48 h, read-out: Activity
HT-29 = experiment: Growth inhibition of human HT-29 cells assessed as cell growth at 10^-5 M incubated for 48 hrs by sulforhodamine B assay relative to control; details: HT-29, 48 h, read-out: Activity
HCT-116 = experiment: Growth inhibition of human HCT116 cells assessed as cell growth at 10^-5 M incubated for 48 hrs by sulforhodamine B assay relative to control; details: HCT-116, 48 h, read-out: Activity
SF-295 = experiment: Growth inhibition of human SF295 cells assessed as cell growth at 10^-5 M incubated for 48 hrs by sulforhodamine B assay relative to control; details: SF-295, 48 h, read-out: Activity
EKVX = experiment: Growth inhibition of human EKVX cells assessed as cell growth at 10^-5 M incubated for 48 hrs by sulforhodamine B assay relative to control; details: read-out: Activity
OVCAR-3 = experiment: Growth inhibition of human OVCAR3 cells assessed as cell growth at 10^-5 M incubated for 48 hrs by sulforhodamine B assay relative to control; details: OVCAR-3, 48 h, read-out: Activity
OVCAR-8 = experiment: Growth inhibition of human OVCAR8 cells assessed as cell growth at 10^-5 M incubated for 48 hrs by sulforhodamine B assay relative to control; details: OVCAR-8, 48 h, read-out: Activity
A498 = experiment: Growth inhibition of human A498 cells assessed as cell growth at 10^-5 M incubated for 48 hrs by sulforhodamine B assay relative to control; details: A498, 48 h, read-out: Activity
MCF7 = experiment: Growth inhibition of human MCF7 cells assessed as cell growth at 10^-5 M incubated for 48 hrs by sulforhodamine B assay relative to control; details: MCF7, 48 h, read-out: Activity
LOX IMVI = experiment: Growth inhibition of human LOXIMVI cells assessed as cell growth at 10^-5 M incubated for 48 hrs by sulforhodamine B assay relative to control; details: read-out: Activity
TK-10 = experiment: Growth inhibition of human TK10 cells assessed as cell growth at 10^-5 M incubated for 48 hrs by sulforhodamine B assay relative to control; details: TK-10, 48 h, read-out: Activity
SNB-75 = experiment: Growth inhibition of human SNB75 cells assessed as cell growth at 10^-5 M incubated for 48 hrs by sulforhodamine B assay relative to control; details: SNB-75, 48 h, read-out: Activity
A549 = experiment: Growth inhibition of human A549/ATCC cells assessed as cell growth at 10^-5 M incubated for 48 hrs by sulforhodamine B assay relative to control; details: A549, 48 h, read-out: Activity
HCT-15 = experiment: Growth inhibition of human HCT15 cells assessed as cell growth at 10^-5 M incubated for 48 hrs by sulforhodamine B assay relative to control; details: HCT-15, 48 h, read-out: Activity
NCI-H322M = experiment: Growth inhibition of human NCI-H322M cells assessed as cell growth at 10^-5 M incubated for 48 hrs by sulforhodamine B assay relative to control; details: read-out: Activity
SF-268 = experiment: Growth inhibition of human SF268 cells assessed as cell growth at 10^-5 M incubated for 48 hrs by sulforhodamine B assay relative to control; details: SF-268, 48 h, read-out: Activity
UACC-62 = experiment: Growth inhibition of human UACC62 cells assessed as cell growth at 10^-5 M incubated for 48 hrs by sulforhodamine B assay relative to control; details: UACC-62, 48 h, read-out: Activity
NCI-H522 = experiment: Growth inhibition of human NCI-H522 cells assessed as cell growth at 10^-5 M incubated for 48 hrs by sulforhodamine B assay relative to control; details: NCI-H522, 48 h, read-out: Activity
MDA-MB-231 = experiment: Growth inhibition of human MDA-MB-231 cells assessed as cell growth at 10^-5 M incubated for 48 hrs by sulforhodamine B assay relative to control; details: MDA-MB-231, 48 h, read-out: Activity
SF-539 = experiment: Growth inhibition of human SF539 cells assessed as cell growth at 10^-5 M incubated for 48 hrs by sulforhodamine B assay relative to control; details: SF-539, 48 h, read-out: Activity
ACHN = experiment: Growth inhibition of human ACHN cells assessed as cell growth at 10^-5 M incubated for 48 hrs by sulforhodamine B assay relative to control; details: read-out: Activity
MOLT-4 = experiment: Growth inhibition of human MOLT4 cells assessed as cell growth at 10^-5 M incubated for 48 hrs by sulforhodamine B assay relative to control; details: MOLT-4, 48 h, read-out: Activity
NCI-H226 = experiment: Growth inhibition of human NCI-H226 cells assessed as cell growth at 10^-5 M incubated for 48 hrs by sulforhodamine B assay relative to control; details: NCI-H226, 48 h, read-out: Activity
HCC 2998 = experiment: Growth inhibition of human HCC2998 cells assessed as cell growth at 10^-5 M incubated for 48 hrs by sulforhodamine B assay relative to control; details: HCC 2998, 48 h, read-out: Activity
U-251 = experiment: Growth inhibition of human U251 cells assessed as cell growth at 10^-5 M incubated for 48 hrs by sulforhodamine B assay relative to control; details: U-251, 48 h, read-out: Activity

SMILES: Cc1ccc(S(=O)(=O)N2CCc3c([nH]c4ccccc34)C2c2ccc(-c3nc4ccccc4[nH]3)cc2)cc1 (configuration not stated)
- growth at 10 µM (NCI-H23): 85.7%
- growth at 10 µM (KM12): 86.8%
- growth at 10 µM (RXF 393): 96.4%
- growth at 10 µM (Hs-578T): 89.2%
- growth at 10 µM (M14): 85.8%
- growth at 10 µM (MDA-MB-468): 102%
- growth at 10 µM (Malme-3M): 89.7%
- growth at 10 µM (OVCAR-5): 78.7%
- growth at 10 µM (HT-29): 87.2%
- growth at 10 µM (HCT-116): 88.3%
- growth at 10 µM (SF-295): 91.9%
- growth at 10 µM (EKVX): 87.4%
- growth at 10 µM (OVCAR-3): 93.5%
- growth at 10 µM (OVCAR-8): 98.2%
- growth at 10 µM (A498): 84.6%
- growth at 10 µM (MCF7): 92.4%
- growth at 10 µM (LOX IMVI): 85.5%
- growth at 10 µM (TK-10): 98%
- growth at 10 µM (SNB-75): 74%
- growth at 10 µM (A549): 92.8%
- growth at 10 µM (HCT-15): 94.3%
- growth at 10 µM (NCI-H322M): 87.7%
- growth at 10 µM (SF-268): 91.3%
- growth at 10 µM (UACC-62): 65%
- growth at 10 µM (NCI-H522): 60.3%
- growth at 10 µM (MDA-MB-231): 73.4%
- growth at 10 µM (SF-539): 90.2%
- growth at 10 µM (ACHN): 79.1%
- growth at 10 µM (MOLT-4): 95.9%
- growth at 10 µM (NCI-H226): 86.4%
- growth at 10 µM (HCC 2998): 102%
- growth at 10 µM (U-251): 98%
